The source made the active and inactive calls. No cut-off for these calls is given here.

Assay [1] addresses Acetylcholinesterase (Torpedo californica) (UniProt P04058). Kind of assay: Inhibition of Pacific electric ray AChE using acetylthiocholine iodide as substrate at 200 uM after 60 mins by Ellman's method relative to control. Particulars: Tetronarce californica. A general note: Ellman's reagent forms a yellow product with free thiols.
The target of assay [2] is Cholinesterase (Equus caballus) (UniProt P81908). Kind of assay: Inhibition of BChE in horse serum using butyrylthiocholine iodide as substrate at 200 uM after 120 mins by Ellman's method relative to control.
The target of assay [3] is T1, Acetylcholinesterase (Torpedo californica, UniProt P04058).
Description: Inhibition of Pacific electric ray AChE using acetylthiocholine iodide as substrate after 60 mins by Ellman's method
Assay [4] can be described thus: Selectivity index, ratio of IC50 for Pacific electric ray AChE to IC50 for BChE in horse serum.
The target in assay [5] is Cholinesterase (Equus caballus, UniProt P81908).
Description: Inhibition of BChE in horse serum using butyrylthiocholine iodide as substrate after 120 mins by Ellman's method
The target of assay [6] is T1, Acetylcholinesterase. Kind of assay: Uncompetitive inhibition of Pacific electric ray AChE using acetylthiocholine as substrate by Lineweaver-Burk plot analysis. Further details: species or system Tetronarce californica.

Sequence of Acetylcholinesterase (Torpedo californica) (P04058 22-564 limits assumed): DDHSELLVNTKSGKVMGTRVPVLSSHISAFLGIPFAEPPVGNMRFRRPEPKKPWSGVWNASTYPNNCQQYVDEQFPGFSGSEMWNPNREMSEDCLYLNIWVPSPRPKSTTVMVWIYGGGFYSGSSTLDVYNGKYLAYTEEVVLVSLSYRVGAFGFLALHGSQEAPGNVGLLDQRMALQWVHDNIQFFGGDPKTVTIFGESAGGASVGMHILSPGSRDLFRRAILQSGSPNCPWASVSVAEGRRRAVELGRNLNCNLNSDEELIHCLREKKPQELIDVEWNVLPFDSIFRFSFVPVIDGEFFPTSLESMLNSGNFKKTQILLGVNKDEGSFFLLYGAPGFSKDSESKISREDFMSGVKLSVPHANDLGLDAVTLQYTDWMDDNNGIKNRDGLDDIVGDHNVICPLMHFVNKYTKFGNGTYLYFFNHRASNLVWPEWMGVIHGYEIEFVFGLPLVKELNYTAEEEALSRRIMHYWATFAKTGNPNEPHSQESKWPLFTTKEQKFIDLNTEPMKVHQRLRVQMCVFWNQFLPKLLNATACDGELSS
T1 sequence (P04058 whole entry): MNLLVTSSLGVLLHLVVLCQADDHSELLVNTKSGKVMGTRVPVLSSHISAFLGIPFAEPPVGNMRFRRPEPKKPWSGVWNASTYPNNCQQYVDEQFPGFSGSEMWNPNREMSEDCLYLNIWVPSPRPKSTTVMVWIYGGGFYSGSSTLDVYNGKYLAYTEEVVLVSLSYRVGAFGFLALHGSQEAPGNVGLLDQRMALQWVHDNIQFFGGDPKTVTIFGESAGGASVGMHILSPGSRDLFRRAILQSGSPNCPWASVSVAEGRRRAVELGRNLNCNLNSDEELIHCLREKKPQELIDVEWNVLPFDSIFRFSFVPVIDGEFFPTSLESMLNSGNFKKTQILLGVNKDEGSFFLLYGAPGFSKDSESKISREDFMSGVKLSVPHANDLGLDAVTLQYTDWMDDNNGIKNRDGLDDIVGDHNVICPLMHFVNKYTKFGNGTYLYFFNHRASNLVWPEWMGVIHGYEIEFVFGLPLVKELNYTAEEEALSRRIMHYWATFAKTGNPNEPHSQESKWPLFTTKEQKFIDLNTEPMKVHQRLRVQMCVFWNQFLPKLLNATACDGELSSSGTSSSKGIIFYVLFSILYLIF
Sequence of Cholinesterase (P81908 whole entry): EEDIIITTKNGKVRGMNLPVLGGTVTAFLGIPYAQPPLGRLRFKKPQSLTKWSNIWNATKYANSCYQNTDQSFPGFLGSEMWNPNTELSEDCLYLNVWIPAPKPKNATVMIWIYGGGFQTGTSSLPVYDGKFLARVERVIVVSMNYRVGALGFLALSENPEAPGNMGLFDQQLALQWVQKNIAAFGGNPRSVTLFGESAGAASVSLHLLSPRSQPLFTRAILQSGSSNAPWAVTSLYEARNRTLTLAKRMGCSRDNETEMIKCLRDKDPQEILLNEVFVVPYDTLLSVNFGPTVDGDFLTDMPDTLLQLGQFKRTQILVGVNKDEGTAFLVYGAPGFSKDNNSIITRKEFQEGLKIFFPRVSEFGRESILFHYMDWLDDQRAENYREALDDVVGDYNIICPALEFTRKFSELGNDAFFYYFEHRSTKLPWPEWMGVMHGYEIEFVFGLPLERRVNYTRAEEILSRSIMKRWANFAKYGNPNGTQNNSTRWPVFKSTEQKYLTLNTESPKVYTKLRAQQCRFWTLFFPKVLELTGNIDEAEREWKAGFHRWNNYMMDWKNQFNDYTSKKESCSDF
Sequence of Cholinesterase (Equus caballus) (P81908 whole entry): as above

One may read the inhibition as the drop in the measured response relative to a control, in per cent. `C=C(C)[C@@H]1CC[C@@]2(C)[C@H]1[C@H]1CC[C@@H]3[C@@]4(C)CC[C@H](OC(=O)c5ccccc5)C(C)(C)[C@@H]4CC[C@@]3(C)[C@]1(C)C[C@@H]2OC(=O)c1ccccc1`: the inhibition was determined as 3.9% in assay [1] and 39.9% in assay [2].
The term IC50 denotes the concentration that inhibits the measured activity by half. A high value points to weaker potency in that assay. `C=C(CO)[C@@H]1CC[C@@]2(C)[C@H]1[C@H]1CC[C@@H]3[C@@]4(C)CC[C@H](O)C(C)(C)[C@@H]4CC[C@@]3(C)[C@]1(C)C[C@@H]2O`: the inhibition is 40.4% in assay [1] and 32% in assay [2]. In assay [3], this compound gave an IC50 of over 200 µM.
On to `C=C(C)[C@@H]1CC[C@@]2(C)[C@H]1[C@H]1CC[C@@H]3[C@@]4(C)CC[C@H](OS(=O)(=O)O)C(C)(C)[C@@H]4CC[C@@]3(C)[C@]1(C)C[C@@H]2OS(=O)(=O)O`, for which the inhibition was found to be 71% in assay [1] and 78.5% in assay [2]. Also, in assay [4], the Ratio IC50 was found to be 2.95. Moreover, the IC50 was found to be 190 µM in assay [3] and 64.3 µM in assay [5].
In the case of `C=C(C)[C@@H]1CC[C@]2(C)C(=O)C[C@]3(C)[C@H](CC[C@@H]4[C@@]5(C)CCC(=O)C(C)(C)[C@@H]5CC[C@]43C)[C@@H]12`, the inhibition in assay [1] is 6.4%; in assay [2] it was 33.4%.
Turning to `C=C(C)[C@@H]1CC[C@@]2(C)[C@H]1[C@H]1CC[C@@H]3[C@@]4(C)CC[C@H](OC(=O)c5ccc(Br)cc5)C(C)(C)[C@@H]4CC[C@@]3(C)[C@]1(C)C[C@@H]2OC(=O)c1ccc(Br)cc1`, in assay [1], the inhibition entry is “inactive”. Moreover, the inhibition in assay [2] amounted to 18.4%.
In the same order, the values of `C=CCCC(=O)O[C@H]1CC[C@]2(C)[C@H]3CC[C@@H]4[C@H]5[C@H](C(=C)C)CC[C@]5(C)[C@@H](OC(=O)CCC=C)C[C@@]4(C)[C@]3(C)CC[C@H]2C1(C)C` are 6.4% and 29.3%.
`C=C(C)[C@@H]1CC[C@@]2(C)[C@H]1[C@H]1CC[C@@H]3[C@@]4(C)CC[C@H](OC(C)=O)C(C)(C)[C@@H]4CC[C@@]3(C)[C@]1(C)C[C@@H]2O`: the inhibition in assay [1] is 1.9%; in assay [2], 46.2%. The compound further gave an IC50 in assay [5] of over 200 µM.
Take `C=C(C=O)[C@@H]1CC[C@@]2(C)[C@H]1[C@H]1CC[C@@H]3[C@@]4(C)CC[C@H](O)C(C)(C)[C@@H]4CC[C@@]3(C)[C@]1(C)C[C@@H]2O`: the inhibition in assay [1] came to 43.5%; in assay [2] it was 42%. For the same compound, the IC50 in assay [3] is over 200 µM.
For `CC1(C)[C@@H](OS(=O)(=O)O)CC[C@]2(C)[C@H]3CC[C@@H]4[C@H]5[C@H]([C@@]6(C)CO6)CC[C@]5(C)[C@@H](OS(=O)(=O)O)C[C@@]4(C)[C@]3(C)CC[C@@H]12`, the inhibition in assay [1] is 13.7%; in assay [2] it was 43.7%. Also, the IC50 in assay [3] and in assay [5] was over 200 µM each time.
Regarding `C=C(CO)[C@@H]1CC[C@@]2(C)[C@H]1[C@H]1CC[C@@H]3[C@@]4(C)CC[C@H](OS(=O)(=O)O)C(C)(C)[C@@H]4CC[C@@]3(C)[C@]1(C)C[C@@H]2OS(=O)(=O)O`, the inhibition in assay [1] was 10.8%; in assay [2], 56.8%. Further, in assay [4], the Ratio IC50 was over 1.7. For the same compound, the half-maximal inhibitory concentration (IC50) in assay [3] is over 200 µM; in assay [5] it was 188 µM.
As for `C=C(COS(=O)(=O)O)[C@@H]1CC[C@@]2(C)[C@H]1[C@H]1CC[C@@H]3[C@@]4(C)CC[C@H](OS(=O)(=O)O)C(C)(C)[C@@H]4CC[C@@]3(C)[C@]1(C)C[C@@H]2OS(=O)(=O)O`, the inhibition in assay [1] was 12.9%; in assay [2], 50.2%. The IC50 in assay [3] and in assay [5] was over 200 µM throughout.
On to `C=C(C=O)[C@@H]1CC[C@@]2(C)[C@H]1[C@H]1CC[C@@H]3[C@@]4(C)CC[C@H](OC(C)=O)C(C)(C)[C@@H]4CC[C@@]3(C)[C@]1(C)C[C@@H]2OC(C)=O`, for which the results for the inhibition in assay [1] and in assay [2] were 6.8% and 45.8%, respectively. In addition, in assay [5], the IC50 was over 200 µM.
In the case of `C=C(C=O)[C@@H]1CC[C@]2(C)C(=O)C[C@]3(C)[C@H](CC[C@@H]4[C@@]5(C)CCC(=O)C(C)(C)[C@@H]5CC[C@]43C)[C@@H]12`, the inhibition in assay [1] stood at 21.7%; in assay [2], 86.5%. Besides, the Ratio IC50 in assay [4] was over 9.3. In addition, the IC50 is over 200 µM in assay [3] and 21.5 µM in assay [5].
In the case of `C=C(C)[C@@H]1CC[C@@]2(C)[C@H]1[C@H]1CC[C@@H]3[C@@]4(C)CC[C@H](O)C(C)(C)[C@@H]4CC[C@@]3(C)[C@]1(C)C[C@@H]2OC(C)=O`, the figures for the inhibition in assay [1] and in assay [2] were 5.6% and 51.2%, respectively. Moreover, the IC50 in assay [5] was over 200 µM.
As for `C=C(C)[C@@H]1CC[C@@]2(C)[C@H]1[C@H]1CCC3[C@@]4(C)CC[C@H](O)C(C)(C)[C@@H]4CC[C@@]3(C)[C@]1(C)C[C@@H]2O` (some centres not stated) [CALENDULADIOL], the IC50 in assay [3] and in assay [5] was over 200 µM throughout.
For the compound `C=C(C=O)[C@@H]1CC[C@@]2(C)[C@H]1[C@H]1CC[C@@H]3[C@@]4(C)CC[C@H](OS(=O)(=O)O)C(C)(C)[C@@H]4CC[C@@]3(C)[C@]1(C)C[C@@H]2OS(=O)(=O)O`, the figures for the inhibition in assay [1] and in assay [2] were 6.1% and 18.4%, respectively.
Turning to `CC(C)[C@@H]1CC[C@@]2(C)[C@H]1[C@H]1CC[C@@H]3[C@@]4(C)CC[C@H](O)C(C)(C)[C@@H]4CC[C@@]3(C)[C@]1(C)C[C@@H]2O`, the inhibition in assay [1] was 24.3%; in assay [2], 14.3%. This compound displayed an IC50 in assay [3] of over 200 µM.
Consider `C=C(C)[C@@H]1CC[C@@]2(C)[C@H]1[C@H]1CC[C@@H]3[C@@]4(C)CC[C@H](OC(=O)CCCCC(=O)O)C(C)(C)[C@@H]4CC[C@@]3(C)[C@]1(C)C[C@@H]2OC(=O)CCCCC(=O)O`, for which the inhibition in assay [1] is 20.2%; in assay [2] it was 89.2%. In addition, the Ratio IC50 in assay [4] was over 2.48. In addition, the IC50 in assay [3] was over 200 µM; in assay [5], 80.6 µM.
For the compound `CC1(C)[C@@H](O)CC[C@]2(C)[C@H]3CC[C@@H]4[C@H]5[C@H]([C@@]6(C)CO6)CC[C@]5(C)[C@@H](O)C[C@@]4(C)[C@]3(C)CC[C@@H]12`, the figures for the inhibition in assay [1] and in assay [2] were 24.3% and 19.4%, respectively. Also, the IC50 in assay [3] is over 200 µM.
Regarding `C=C(C)[C@@H]1CC[C@@]2(C)[C@H]1[C@H]1CC[C@@H]3[C@@]4(C)CC[C@H](OC(C)=O)C(C)(C)[C@@H]4CC[C@@]3(C)[C@]1(C)C[C@@H]2OC(C)=O`, the figures for the inhibition in assay [1] and in assay [2] were 3.3% and 35.2%, respectively.
As usually defined, the Ki is the dissociation constant of the complex between target and ligand, obtained from inhibition or displacement. A low value points to a stronger hold on the target. Turning to `CC(C)[C@@H]1CC[C@@]2(C)[C@H]1[C@H]1CC[C@@H]3[C@@]4(C)CC[C@H](OS(=O)(=O)O)C(C)(C)[C@@H]4CC[C@@]3(C)[C@]1(C)C[C@@H]2OS(=O)(=O)O`, the inhibition came to 98.9% in assay [1] and 87.8% in assay [2]. For the same compound, the Ratio IC50 in assay [4] was 0.56. The compound further returned a Ki in assay [6] of 144 µM. For the same compound, the IC50 in assay [3] worked out at 58.8 µM; in assay [5], 104 µM.
On to `C=C(COC(C)=O)[C@@H]1CC[C@@]2(C)[C@H]1[C@H]1CC[C@@H]3[C@@]4(C)CC[C@H](OC(C)=O)C(C)(C)[C@@H]4CC[C@@]3(C)[C@]1(C)C[C@@H]2OC(C)=O`, for which the inhibition in assay [1] was 7.2%.
For the compound `C=C(C)[C@@H]1CC[C@@]2(C)[C@H]1[C@H]1CC[C@H]3[C@@]4(C)CC[C@H](O)C(C)(C)[C@@H]4CC[C@@]3(C)[C@]1(C)C[C@@H]2O`, the inhibition in assay [1] was 8.1%; in assay [2] it was 42%.

(Values after ChEMBL document CHEMBL3286215, “Preparation, anticholinesterase activity and molecular docking of new lupane derivatives” (Bioorg Med Chem, 2014).)
